The source made the active and inactive calls.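 How the source made its calls: active means compounds giving half or more protection of infected cells from virus-caused growth loss, again on retest; inactive means the rest.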
Tested on: CEM cells HIV-1 protection, formazan growth assay
Assay: NCI AIDS Antiviral Assay
Conditions: for IC50: measured here: growth of uninfected CEM cells
In short: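 Five concentrations of each compound were applied to infected and uninfected human CEM cells. Protection from HIV-1 was judged from growth measured with a soluble formazan assay.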

SMILES	EC50	IC50	outcome
Cc1cc(Cl)ccc1NC(=O)CCCC(=O)C1CCC/C1=N\NC(=O)CC#N (stereo unspecified)	> 64.6 µM	> 64.6 µM	
Cc1nc(N/N=C/c2ccccc2Cl)[nH]c(=O)c1CCO	> 100 µM	> 100 µM	
COc1cccc(C2SC(N)=Nc3c2c(C)nn3C(=O)Cc2ccccc2)c1 (stereo unspecified)	79.4 µM	129 µM	
Cc1c(-c2coc(-c3ccc(Cl)cc3)n2)c(=O)n(-c2ccccc2)n1C	> 51.3 µM	> 51.3 µM	
CN1CCCc2nc3ccccc3n2C1	> 36.3 µM	> 36.3 µM	
Cc1cccc(C)c1NC(=O)CCc1n[nH]c(=S)o1	> 468 µM	> 468 µM	
CCOC(=O)[C@H]1[C@@H]2CCCC[C@@]23C(Cl)(Cl)[C@@]32C[C@]1(C(=O)OCC)CCC(=O)O2			inactive
CN(/N=C(\C(=O)O)c1ccccc1)C1=NCCN1	> 200 µM	> 200 µM	
CCCCCCCCCCCCCCCCOCC(CCl)OP(=O)(O)OP(=O)(O)OCC1OC(n2ccc(N)nc2=O)C(O)C1O (stereo unspecified)	> 200 µM	170 µM	
c1ccc2c(NCCCCCCCCNc3c4ccccc4nc4ccccc34)c3ccccc3nc2c1			inactive
COc1ccc2c(c1)Oc1cc(O)ccc1[C@@H]2c1ccccc1C(=O)NC(C)c1ccccc1 (stereo partly specified)	> 15.8 µM	14.5 µM	
O=C(Nc1ccccc1)N1C(c2ccccc2)=N[C@@H](c2ccccc2)[C@@H]1c1ccccc1			inactive
CC1(C)CNC(=O)C(C)(C2(C)NC(C)(C)CNC2=O)N1 (stereo unspecified)	> 200 µM	> 200 µM	
CCOP(=O)(OCC)/C(C#N)=C/c1ccc(-c2ccc(F)cc2F)o1			inactive
CC(=O)OC12CCCCC1C1(CCCC1)NC2=O (stereo unspecified)			inactive
CC(=O)OC1CC2C(C)(C)CCCC2(C)C2C(=O)C(O)=C(C(C)C)C(=O)C12 (stereo unspecified)	> 200 µM	2.82 µM	
Cc1coc2c1C[C@@]1(C)[C@H](CCC[C@@H]1C)[C@H]2O	> 200 µM	27.5 µM	

SMILES	EC50	IC50	outcome
CCC1CCC2c3c([nH]c4ccccc34)C3C(=O)N(c4ccc(OC)cc4)C(=O)C3C2C1 (stereo unspecified)	33.9 µM	> 200 µM	
COc1ccc(NC(=O)CC(=O)N/N=C(/C)c2cc3cc(N=Nc4ccccc4Cl)ccc3oc2=O)cc1	> 9.77 µM	> 9.77 µM	
O=C(Nc1ccc(Cl)cc1Cl)C1C(=O)OC2(CCCCC2)OC1=O	> 200 µM	13.8 µM	
CCN(CC)CCC(=O)c1ccc(Oc2ccc(F)cc2)cc1	> 200 µM	22.9 µM	
O=C(Nc1ccc(C(F)(F)F)cc1[N+](=O)[O-])C(=O)C(C(=O)c1ccc2ccccc2c1)C1OC(=O)c2ccccc21 (stereo unspecified)	> 64.6 µM	33.9 µM	
O=[N+]([O-])c1ccc(N=Nc2c(NNc3ccc([N+](=O)[O-])cn3)cc(S(=O)(=O)O)c3ccccc23)nc1			inactive
NNC(=O)c1nnc(NN)[nH]c1=O	> 200 µM	> 200 µM	
Cc1nn(C(=O)CC(=O)Nc2ccccc2Cl)c(C)c1N=Nc1ccccc1Cl			inactive
CSc1nc(NC2OC(COC(C)=O)C(OC(C)=O)C(OC(C)=O)C2OC(C)=O)c(N=CC=Nc2c(NC3OC(COC(C)=O)C(OC(C)=O)C(OC(C)=O)C3OC(C)=O)nc(SC)[nH]c2=O)c(=O)[nH]1 (stereo unspecified)			inactive
COC(=O)NNC(c1ccc(Cl)cc1)c1ccc(Cl)cc1	> 200 µM	30.9 µM	
CCCc1c[nH]c(-c2ccc(-c3cc(CCC)c(C=O)[nH]3)s2)c1	> 11.5 µM	> 11.5 µM	
COC(=O)[C@@H]1CCCN1C(=O)C1Cc2c([nH]c3ccccc23)[C@@H](C=C(C)C)N1C(=O)OC(C)(C)C(Cl)(Cl)Cl (stereo partly specified)			inactive
CC(NC(=O)CNP(=O)(c1ccccc1)c1ccccc1)C(=O)NC(Cc1ccccc1)C(=O)OCc1ccccc1 (stereo unspecified)	> 200 µM	20.4 µM	
Cc1nc(N)c(N2CCN([N+](=O)[O-])CC2)c(=O)[nH]1			inactive
COc1cc2cc3c4c(cc(OC)c(OC)c4c2cc1OC)CCN3C(=O)CCCC(=O)O	> 200 µM	110 µM	
O=c1oc2ccccc2c(O)c1Oc1ccccc1	> 200 µM	195 µM	

Reference: PubChem BioAssay AID179 (DTP/NCI, 2004)
